# Reference: patent US11732277B2, “Cellular production of pure iron oxide nanoparticles” (NANOBACTERIE, priority 2018, dated 2023)
# Where two headings read alike, the source gives them in different places.
# Key:
# [1] = tested on: MSR-1 magnetotactic bacteria; type: cell-based; details: for Growth ratio (ODD13/ODD6) / Optical density following pre-growth (ODD6) / Optical density following growth (ODD13): condition 4, individual vitamins; for Optical density following pre-growth (ODD6) / Optical density following growth (ODD13): OD at 565 nm; for Optical density following pre-growth (ODD6): day 6; for Optical density following growth (ODD13): day 13; for OD565 nmD13/OD565 nmD6: condition 4, individual vitamin replacing yeast extract, mineral elixir CB3, 50 mL tubes
# Experimental: Optical density measurements of suspensions of whole magnetotactic bacteria to assess bacterial growth: The optical density of the different suspensions of magnetotactic bacteria was measured at 565 nm, designated as OD565 nm, using a Secomam UviLine9400 spectrophotometer. The value of OD565 nm is proportional to the concentrations of bacteria in the suspensions. […]
# This example describes the experimental protocol used to determine the reduced medium replacing the yeast extract that enables the growth of MSR-1 magnetotactic bacteria and the synthesis of magnetosomes by these bacteria. In this example we used non-pharmaceutical grade chemicals for the preparation of the growth media. The compositions of pre-growth and growth media, in one liter of de-ionized water, are indicated in table 2 (condition 2), table 3 (condition 3), and table 4 (condition 4). During the first day of the experiment (D1), a first step consists in collecting the tubes of 15 ml containing 5 mL of MSR-1 cellular stock tube from the freezer at −80° C., in thawing the tubes by letting them at room temperature for 10 minutes. In a hood, we collected from these tubes 100 μl comprising 5.10^6 MSR-1 magnetotactic bacteria that we have inserted in a 50 mL tube comprising 8 mL of filtered pre-growth medium of either condition 2 (table 2), condition 3 (table 3), or condition 4 (table 4). The 50 ml tubes were incubated for 6 days between D1 and D6 in an incubator at 29.5° C. under shaking conditions at 150 rpm. A second step consisted in adding an iron source to the growth media to enable the synthesis of magnetosomes by MSR-1 bacteria. After 6 days of pre-growth, at D6, the 50 ml tubes were placed in a hood. 30 ml of filtered growth medium were then added to the 50 mL tubes (condition 2, table 2, condition 3, table 3, condition 4, table 4) at D6 and the bacteria grew between D6 and D13. […] In contrast, the magnetic response is 0 for conditions Vit5X, Vit10X (condition 3) and very low for conditions CP, I, AA, P (condition 4). […]
# [2] = tested on: MSR-1 magnetotactic bacteria; type: cell-based; details: for magnetic response: condition 4, individual vitamin replacing yeast extract, at D13; for Magnetic response (%): condition 4, individual vitamins, D13
# Experimental: Measurement of the magnetic response of living magnetotactic bacteria using optical microscopic observations of these bacteria under the application of a magnetic field: 1 mL of a suspension of MSR-1 magnetotactic bacteria was centrifugated at 14500 rpm for 10 minutes. The growth medium was removed and replaced by a volume of PBS 0.1× to reach an OD565 nm of 0.5. 1 μL of this suspension of MSR-1 magnetotactic bacteria was deposited on a parallelipedic microscope slide (Menzel-Glaser, 24 mm×60 mm, […]) for microscopic observation using a Zeiss Primo Vert optical microscope with X40 magnification. Four small cubic Neodinium magnets of strength 1.3 T (Supermagnet, N42 W-10-N 10×10×10 mm) were positioned on the microscope's platform at a distance from the suspension of bacteria of ˜2 cm in such a way that it either generated a magnetic field parallel to the position of the observer or to the line between the two binoculars (position 1) or perpendicular to this position (position 2). 20 seconds after positioning the magnet in position 1 or 2, the percentage of bacteria aligned in the direction of the magnetic field was estimated, by considering 200 magnetotactic bacteria. The bacteria that were not aligned in the same direction as the magnetic field generated by the magnet were considered as non-magnetic. Their number is designated as nBNM. The bacteria that were aligned in the direction of the magnetic field generated by the magnet were considered as magnetic. Their number was designated as nBM. The percentage of magnetic bacteria was then given by nBM/(nBM+nBNM). A positive magnetic response of magnetotatic bacteria corresponded to nBM/(nBM+nBNM)>0.5. A negative magnetic response of magnetotatic bacteria corresponds to nBM/(nBM+nBNM)<0.5.
# In some cases, the percentage of magnetic bacteria can be measured by optical observation under microscope in the presence of a magnetic field.
Compound,Growth ratio (ODD13/ODD6) [1],Optical density following pre-growth (ODD6) [1],Optical density following growth (ODD13) [1],magnetic response [2],Magnetic response (%) [2] [%],OD565 nmD13/OD565 nmD6 [1],"OD565 nmD13/OD565 nmD6 ([1]; listed as thiamin HCl, HCl)","magnetic response ([2]; listed as thiamin HCl, HCl) [%]"
"Nc1ccc(C(=O)O)cc1 [AA, p-Aminobenzoic acid]",6.7,0.12,0.8,very low,20,–,–,–
"Cc1ncc(CO)c(CO)c1O.Cl [P, Pyridoxine HCl]",2.8,0.25,0.7,very low,5,–,–,–
O=C(O)CCCC[C@@H]1SC[C@@H]2NC(=O)N[C@@H]21 [Biotin],–,–,–,90%,>90,–,–,–
Calcium pantothenate [CP],3.3,0.3,0.98,very low,5,–,–,–
Cc1cc2nc3c(=O)[nH]c(=O)nc-3n(C[C@H](O)[C@H](O)[C@H](O)CO)c2cc1C [Riboflavin],4.8,0.19,0.92,90%,>90,4.8,–,–
Thiamine HCl,5.8,0.26,1.51,–,>90,–,5.8,90
"O[C@H]1[C@H](O)[C@@H](O)[C@H](O)[C@@H](O)[C@H]1O [I, Inositol]",2.4,0.33,0.8,very low,20,–,–,–
"Nc1nc2ncc(CNc3ccc(C(=O)N[C@@H](CCC(=O)O)C(=O)O)cc3)nc2c(=O)[nH]1 [folic acid, Folic acid]",2.9,0.4,1.14,90%,50,2.9,–,–
"O=C(O)c1cccnc1 [nicotinic acid, Nicotinic acid]",2.4,0.27,0.65,90%,>90,2.4,–,–
